# Reference: ChEMBL document CHEMBL3217497, “Design, synthesis and antiproliferative activity of indole analogues of indanocine” (2013)
# Tests used:
# Format in all cases: functional
# MCF7 = assay: Cytotoxicity against human MCF7 cells assessed as growth inhibition
# [1] = Cytotoxicity against human EKVX cells assessed as growth inhibition
# NCI-H23 = assay: Cytotoxicity against human NCI-H23 cells assessed as growth inhibition
# [2] = Cytotoxicity against human UO31 cells assessed as growth inhibition; settings: UO-31
# T47D = assay: Cytotoxicity against human T47D cells assessed as growth inhibition
# HCC 2998 = assay: Cytotoxicity against human HCC2998 cells assessed as growth inhibition
# KM12 = assay: Cytotoxicity against human KM12 cells assessed as growth inhibition
# U-251 = assay: Cytotoxicity against human U251 cells assessed as growth inhibition
# Malme-3M = assay: Cytotoxicity against human MALME-3M cells assessed as growth inhibition
# K562 = assay: Cytotoxicity against human K562 cells assessed as growth inhibition
# M14 = assay: Cytotoxicity against human M14 cells assessed as growth inhibition
# SF-268 = assay: Cytotoxicity against human SF268 cells assessed as growth inhibition
# RXF 393 = assay: Cytotoxicity against human RXF393 cells assessed as growth inhibition
# SNB-19 = assay: Cytotoxicity against human SNB19 cells assessed as growth inhibition
# [3] = Cytotoxicity against human OVCAR4 cells assessed as growth inhibition; settings: OVCAR-4
# SW-620 = assay: Cytotoxicity against human SW620 cells assessed as growth inhibition
# MDA-MB-435 = assay: Cytotoxicity against human MDA-MB-435 cells assessed as growth inhibition
# CCRF-CEM = assay: Cytotoxicity against human CCRF-CEM cells assessed as growth inhibition
# HL-60(TB) = assay: Cytotoxicity against human HL-60(TB) cells assessed as growth inhibition
# A549 = assay: Cytotoxicity against human A549 cells assessed as growth inhibition
# NCI-H522 = assay: Cytotoxicity against human NCI-H522 cells assessed as growth inhibition
# SK-MEL-5 = assay: Cytotoxicity against human SK-MEL-5 cells assessed as growth inhibition
# MOLT-4 = assay: Cytotoxicity against human MOLT4 cells assessed as growth inhibition
# MDA-MB-231 = assay: Cytotoxicity against human MDA-MB-231 cells assessed as growth inhibition
# RPMI-8226 = assay: Cytotoxicity against human RPMI8226 cells assessed as growth inhibition
# [4] = Cytotoxicity against human NCI-ADR-RES cells assessed as growth inhibition
# [5] = Cytotoxicity against human UACC257 cells assessed as growth inhibition; settings: UACC-257
# HT-29 = assay: Cytotoxicity against human HT-29 cells assessed as growth inhibition
# NCI-H322M = assay: Cytotoxicity against human NCI-H322M cells assessed as growth inhibition
# LOX IMVI = assay: Cytotoxicity against human LOXIMVI cells assessed as growth inhibition
# [6] = Cytotoxicity against human OVCAR5 cells assessed as growth inhibition; settings: OVCAR-5
# NCI-H226 = assay: Cytotoxicity against human NCI-H226 cells assessed as growth inhibition
# MDA-MB-468 = assay: Cytotoxicity against human MDA-MB-468 cells assessed as growth inhibition
# BT-549 = assay: Cytotoxicity against human BT549 cells assessed as growth inhibition
# PC-3 = assay: Cytotoxicity against human PC3 cells assessed as growth inhibition
# [7] = Cytotoxicity against human Hs 578T cells assessed as growth inhibition
# SF-295 = assay: Cytotoxicity against human SF295 cells assessed as growth inhibition
# CAKI-1 = assay: Cytotoxicity against human CAKI-1 cells assessed as growth inhibition
# SR = assay: Cytotoxicity against human SR cells assessed as growth inhibition
# ACHN = assay: Cytotoxicity against human ACHN cells assessed as growth inhibition
# 786-0 = assay: Cytotoxicity against human 786-0 cells assessed as growth inhibition
# COLO 205 = assay: Cytotoxicity against human COLO205 cells assessed as growth inhibition
# HCT-116 = assay: Cytotoxicity against human HCT116 cells assessed as growth inhibition
# SK-MEL-2 = assay: Cytotoxicity against human SK-MEL-2 cells assessed as growth inhibition
# IGROV-1 = assay: Cytotoxicity against human IGROV1 cells assessed as growth inhibition
# SK-MEL-28 = assay: Cytotoxicity against human SK-MEL-28 cells assessed as growth inhibition
# NCI-H460 = assay: Cytotoxicity against human NCI-H460 cells assessed as growth inhibition
# TK-10 = assay: Cytotoxicity against human TK10 cells assessed as growth inhibition
# [8] = Cytotoxicity against human OVCAR3 cells assessed as growth inhibition; settings: OVCAR-3
# SK-OV-3 = assay: Cytotoxicity against human SKOV3 cells assessed as growth inhibition
# [9] = Cytotoxicity against human HCT15 cells assessed as growth inhibition; settings: HCT-15
# [10] = Cytotoxicity against human OVCAR8 cells assessed as growth inhibition; settings: OVCAR-8
# SNB-75 = assay: Cytotoxicity against human SNB75 cells assessed as growth inhibition
# SN12C = assay: Cytotoxicity against human SN12C cells assessed as growth inhibition
# [11] = Cytotoxicity against human UACC62 cells assessed as growth inhibition; settings: UACC-62
# SF-539 = assay: Cytotoxicity against human SF539 cells assessed as growth inhibition
# HOP-62 = assay: Cytotoxicity against human HOP62 cells assessed as growth inhibition
# HOP-92 = assay: Cytotoxicity against human HOP92 cells assessed as growth inhibition
# DU-145 = assay: Cytotoxicity against human DU145 cells assessed as growth inhibition
# A498 = assay: Cytotoxicity against human A498 cells assessed as growth inhibition
compound,measurement,setting,value
Cc1cc(/C=C2\CCc3c(n(C)c4ccccc34)C2=O)cc(C)c1O,GI50,MCF7,370 nM
same,GI50,[1],4840 nM
same,GI50,NCI-H23,2530 nM
same,GI50,[2],730 nM
same,GI50,T47D,2060 nM
same,GI50,HCC 2998,3610 nM
same,GI50,KM12,450 nM
same,GI50,U-251,540 nM
same,GI50,Malme-3M,450 nM
same,GI50,K562,330 nM
same,GI50,M14,390 nM
same,GI50,SF-268,720 nM
same,GI50,RXF 393,1080 nM
same,GI50,SNB-19,630 nM
same,GI50,[3],3870 nM
same,GI50,SW-620,430 nM
same,GI50,MDA-MB-435,160 nM
same,GI50,CCRF-CEM,740 nM
same,GI50,HL-60(TB),340 nM
same,GI50,A549,740 nM
same,GI50,NCI-H522,140 nM
same,GI50,SK-MEL-5,410 nM
same,GI50,MOLT-4,800 nM
same,GI50,MDA-MB-231,1060 nM
same,GI50,RPMI-8226,760 nM
same,GI50,[4],340 nM
same,GI50,[5],5830 nM
same,GI50,HT-29,4180 nM
same,GI50,NCI-H322M,2730 nM
same,GI50,LOX IMVI,700 nM
same,GI50,[6],5100 nM
same,GI50,NCI-H226,4380 nM
same,GI50,MDA-MB-468,310 nM
same,GI50,BT-549,2840 nM
same,GI50,PC-3,2490 nM
same,GI50,[7],730 nM
same,GI50,SF-295,1480 nM
same,GI50,CAKI-1,840 nM
same,GI50,SR,340 nM
same,GI50,ACHN,830 nM
same,GI50,786-0,3250 nM
same,GI50,COLO 205,22900 nM
same,GI50,HCT-116,390 nM
same,GI50,SK-MEL-2,330 nM
same,GI50,IGROV-1,1590 nM
same,GI50,SK-MEL-28,640 nM
same,GI50,NCI-H460,390 nM
same,GI50,TK-10,1080 nM
same,GI50,[8],350 nM
same,GI50,SK-OV-3,1520 nM
same,GI50,[9],510 nM
same,GI50,[10],920 nM
same,GI50,SNB-75,410 nM
same,GI50,SN12C,720 nM
same,GI50,[11],410 nM
same,GI50,SF-539,700 nM
same,GI50,HOP-62,720 nM
same,GI50,HOP-92,6560 nM
same,GI50,DU-145,1850 nM
same,GI50,A498,3390 nM
Cc1cc(/C=C2\Cc3c([nH]c4ccccc34)C2=O)cc(C)c1O,GI50,MCF7,700 nM
same,GI50,[1],2590 nM
same,GI50,NCI-H23,1790 nM
same,GI50,[2],320 nM
same,GI50,T47D,12600 nM
same,GI50,HCC 2998,7490 nM
same,GI50,KM12,460 nM
same,GI50,U-251,1120 nM
same,GI50,Malme-3M,310 nM
same,GI50,K562,330 nM
same,GI50,M14,410 nM
same,GI50,SF-268,860 nM
same,GI50,RXF 393,1430 nM
same,GI50,SNB-19,710 nM
same,GI50,[3],10200 nM
same,GI50,SW-620,410 nM
same,GI50,MDA-MB-435,160 nM
same,GI50,CCRF-CEM,2180 nM
same,GI50,HL-60(TB),340 nM
same,GI50,A549,1580 nM
same,GI50,NCI-H522,90 nM
same,GI50,SK-MEL-5,390 nM
same,GI50,MOLT-4,6010 nM
same,GI50,MDA-MB-231,3190 nM
same,GI50,RPMI-8226,670 nM
same,GI50,[4],350 nM
same,GI50,[5],26100 nM
same,GI50,HT-29,15800 nM
same,GI50,NCI-H322M,10400 nM
same,GI50,LOX IMVI,690 nM
same,GI50,[6],11100 nM
same,GI50,NCI-H226,9600 nM
same,GI50,MDA-MB-468,2430 nM
same,GI50,PC-3,3570 nM
same,GI50,[7],550 nM
same,GI50,SF-295,2780 nM
same,GI50,CAKI-1,1400 nM
same,GI50,SR,390 nM
same,GI50,786-0,5960 nM
same,GI50,COLO 205,19500 nM
same,GI50,HCT-116,500 nM
same,GI50,SK-MEL-2,400 nM
same,GI50,IGROV-1,3540 nM
same,GI50,SK-MEL-28,730 nM
same,GI50,NCI-H460,420 nM
same,GI50,TK-10,6270 nM
same,GI50,[8],510 nM
same,GI50,SK-OV-3,730 nM
same,GI50,[9],560 nM
same,GI50,[10],990 nM
same,GI50,SNB-75,290 nM
same,GI50,SN12C,620 nM
same,GI50,[11],4570 nM
same,GI50,SF-539,550 nM
same,GI50,HOP-62,650 nM
same,GI50,HOP-92,7470 nM
same,GI50,DU-145,2050 nM
same,GI50,A498,4860 nM
COc1cc2c(c(N)c1OC)C(=O)/C(=C\c1cc(C)c(O)c(C)c1)C2 [INDANOCINE],GI50,MCF7,10 nM
same,GI50,[1],10 nM
same,GI50,NCI-H23,10 nM
same,GI50,[2],80 nM
same,GI50,T47D,100000 nM
same,GI50,HCC 2998,2000 nM
same,GI50,KM12,10 nM
same,GI50,U-251,20 nM
same,GI50,K562,10 nM
same,GI50,M14,10 nM
same,GI50,SF-268,10 nM
same,GI50,RXF 393,30 nM
same,GI50,SNB-19,10 nM
same,GI50,[3],7940 nM
same,GI50,SW-620,10 nM
same,GI50,MDA-MB-435,10 nM
same,GI50,CCRF-CEM,10 nM
same,GI50,HL-60(TB),10 nM
same,GI50,A549,10 nM
same,GI50,NCI-H522,10 nM
same,GI50,SK-MEL-5,10 nM
same,GI50,MOLT-4,10 nM
same,GI50,MDA-MB-231,10 nM
same,GI50,RPMI-8226,10 nM
same,GI50,[4],10 nM
same,GI50,[5],100000 nM
same,GI50,HT-29,2510 nM
same,GI50,NCI-H322M,10 nM
same,GI50,LOX IMVI,10 nM
same,GI50,[6],630 nM
same,GI50,NCI-H226,3980 nM
same,GI50,BT-549,10000 nM
same,GI50,PC-3,10 nM
same,GI50,SF-295,60 nM
same,GI50,CAKI-1,3980 nM
same,GI50,SR,10 nM
same,GI50,ACHN,60 nM
same,GI50,786-0,10 nM
same,GI50,COLO 205,5010 nM
same,GI50,HCT-116,10 nM
same,GI50,SK-MEL-2,1000 nM
same,GI50,IGROV-1,40 nM
same,GI50,SK-MEL-28,1000 nM
same,GI50,NCI-H460,10 nM
same,GI50,TK-10,79400 nM
same,GI50,[8],10 nM
same,GI50,SK-OV-3,10 nM
same,GI50,[9],10 nM
same,GI50,[10],10 nM
same,GI50,SN12C,10 nM
same,GI50,[11],10 nM
same,GI50,SF-539,10 nM
same,GI50,HOP-62,20 nM
same,GI50,HOP-92,100000 nM
same,GI50,DU-145,10 nM
same,GI50,A498,7940 nM
